Holding throughout (format): cell-based
The target in assay [1] is T1, CRAC channels (Homo sapiens (Human), UniProt Q96D31). The assay can be described thus: In-vitro CRAC channel inhibition assay in Jurkat cells (thapsigargin-induced calcium influx). In outline:
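Jurkat cells given test compounds in Ca2+/Mg2+-free Hanks buffer for 15 min, then thapsigargin (1 μM final) for 15 min to deplete ER stores. IC50 from percent inhibition of thapsigargin-induced Ca2+ influx.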

Assay [2] concerns the target T1, CRAC channels. The assay can be described thus: In-vitro CRAC channel inhibition assay in NCI-H460 cancer cell line (Ca assay). To be noted: thapsigargin-induced calcium influx, NCI-H460 cells. The procedure: 1B. In-Vitro CRAC Channel Inhibition Assay in NCI-H460 Cancer Cell Line
Inhibition of CRAC channels was determined following thapsigargin (Sigma, Cat #T9033) induced endoplasmic calcium release in NCI-H460 cells (National Centre For Cell Science (NCCS), Pune).
Cells (30,000 per well) were plated overnight in complete RPMI medium. Medium was substituted with Ca^2+ and Mg^2+ free Hanks buffer and Fluo-8 NW dye (ABD Bioquest, Inc., Sunnyvale, Calif.) loading solution in 96-well black plate. Plate was incubated at 37° C./5% CO2 for 30 min followed by further 15 min incubation at room temperature. Test compounds (DMSO stocks diluted in Ca^2+ and Mg^2+ free Hanks buffer) at desired concentrations were added to the wells and incubated for 15 min. Thapsigargin (1 μM final concentration) was added to the wells and incubated for 15 min to inhibit the Sarco-endoplasmic reticulum Ca^2+ ATPase pump thereby depleting endoplasmic calcium and raising cytosolic calcium concentrations. Store-operated calcium entry was initiated by adding extracellular Ca^2+ to a final concentration of 2.5 mM. Fluorescence was monitored over 30 min on a plate reader (BMG Labtech., Germany) with excitation at 485 nm and an emission wavelength at 520 nm. Data were analyzed using GraphPad Prism. IC50 for each compound was determined based on the percent inhibition of Thapsigargin-induced calcium influx into cells.

Assay [3] concerns NCI-H460 cancer cell line. The experiment in a line: In-vitro cell proliferation assay in NCI-H460 cancer cell line (MTT). To be noted: Homo sapiens, 48 h; for pIC50: read-out: NCI-H460 Cell line assay G1 50 nM. The procedure: 1C. In-Vitro Cell Proliferation Assay in NCI-H460 Cancer Cell Line (Anticancer Activity)
Growth inhibition assays were carried out using 10% FBS supplemented media. Cells were seeded at a concentration of 5000 cells/well in a 96-well plate. Test compound at a concentration range from 0.01 to 10000 nM were added after 24 h. Growth was assessed using the 3-[4,5-dimethylthiazol-2-yl]-2,5-diphenyltetrazolium bromide (MTT) dye reduction test at 0 h (prior to the addition of the test compound) and 48 h after the addition of test compound. Absorbance was read on a Fluostar Optima (BMG Labtech, Germany) at a wave length of 450 nm. Data were analysed using GraphPad Prism. IC-50 for each compound was determined based on the % inhibition due to the test compound compared to the control.
For methods of cell proliferation assay, see, for example, Mosmann. T., Journal of Immunological Methods, 65(1-2), 55-63, (1983).

For assay [4], the system named is IL-2. The assay can be described thus: Inhibition of cytokine release in Human Whole Blood: IL-2. To be noted: Con A + PMA, 20 h, ELISA, read-out: IC 50 Human Whole Blood IL-2. On the procedure:
(§1) 2. In Vitro Inhibition of Cytokine Release in Jurkat Cells, Human Whole Blood and Peripheral Blood Mononuclear Cells (PBMC).
(§2) Inhibition of cytokine IL-2, IL-4, IL-5 and TNF α was determined as described below. • a. Inhibition of IL-2 in Jurkat cells: Cells were incubated with desired concentrations of the inhibitor for 15 min. Cytokine release was induced by the addition of Concanavalin A (25 μg/ml)+Phorbol Myristate Acetate (50 ng/ml) for IL-2 & TNFα or with Phytohemagglutinin ([…]) for IL-4 & IL-5 and incubated at 37° C. in an atmosphere containing […]. Supernatant was collected after 20 h (IL-2 & TNFα) or 48 h (IL-4 & IL-5) for estimation of cytokines by ELISA. Data were analysed using GraphPad Prism. IC50 values for each compound were determined based on the percent inhibition due to the test compound compared to the control. • b. Inhibition of cytokine release in Human Whole Blood (HWB): Freshly collected HWB was diluted with RPMI medium (1:4.5) and added to a 96-well plate. Wells were incubated with desired concentrations of the inhibitor for 15 min. Cytokine release was induced by the addition of Concanavalin A (25 μg/ml)+Phorbol Myristate Acetate (50 ng/ml) for IL-2 & TNFα or with Phytohemagglutinin (5 μg/ml) for IL-4 & IL-5 and incubated at 37° C. in an atmosphere containing […]. Supernatant was collected after 20 h (IL-2 & TNFα) or 48 h (IL-4 & IL-5) for estimation of cytokines by ELISA. Data were analysed using GraphPad Prism. IC50 values for each compound were determined based on the percent inhibition due to the test compound compared to the control. • c. Inhibition of cytokine release in PBMC: PBMC from freshly collected HWB were isolated by density gradient using Histopaque and seeded in a 96-well plate. Cells were incubated with desired concentrations of the inhibitor for 15 min. Cytokine release was induced by the addition of Concanavalin A (25 μg/ml)+Phorbol Myristate Acetate (50 ng/ml) for IL-2 & TNFα or with Phytohemagglutinin (5 μg/ml) for IL-4 & IL-5 and incubated at 37° C. in an atmosphere containing […]. Supernatant was collected after 20 h (IL-2 & TNFα) or 48 h (IL-4 & IL-5) for estimation of cytokines by ELISA. Data were analysed using GraphPad Prism. IC50 values for each compound were determined based on the percent inhibition due to the test compound compared to the control.
A general note: In an ELISA, binding on a coated surface is turned into a signal by an enzyme label.

Assay [5] has as its system TNFα. The assay can be described thus: Inhibition of cytokine release in Human Whole Blood: TNFα. To be noted: Con A + PMA, 20 h, ELISA, read-out: IC 50 Human Whole Blood TNFα. On the procedure: as §1, §2
In assay [6] the test system is IL-2. The experiment in a line: Inhibition of cytokine release in PBMC: IL-2. To be noted: Homo sapiens, Con A + PMA, 20 h, ELISA, read-out: IC 50 PBMC IL-2. The procedure: as §1, §2
For assay [7], the system named is IL-2. The experiment in a line: Inhibition of IL-2 in Jurkat cells. The following applies: Homo sapiens, Con A + PMA, 20 h, ELISA, read-out: IC 50 Jurkat IL-2. The procedure:
as §1, §2

The test system of assay [8] is TNFα. The experiment in a line: Inhibition of cytokine release in PBMC: TNFα. To be noted: Homo sapiens, Con A + PMA, 20 h, ELISA, read-out: IC 50 PBMC TNFα. On the procedure:
as §1, §2

pIC50: −log10 of the molar value. Where a name gives a salt, the structure may show the parent alone.

T1 sequence (Q96D31 whole entry): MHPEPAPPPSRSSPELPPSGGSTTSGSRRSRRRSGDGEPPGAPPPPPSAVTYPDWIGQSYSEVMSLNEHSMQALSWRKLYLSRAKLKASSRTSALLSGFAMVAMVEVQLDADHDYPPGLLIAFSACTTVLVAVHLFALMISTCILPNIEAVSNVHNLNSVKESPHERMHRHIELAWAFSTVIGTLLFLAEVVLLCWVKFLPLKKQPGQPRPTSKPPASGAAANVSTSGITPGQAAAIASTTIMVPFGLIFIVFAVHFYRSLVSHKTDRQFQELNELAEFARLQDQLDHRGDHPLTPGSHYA

Consider `Cc1nnsc1C(=O)Nc1ccc(-n2nc(C3CC3)cc2C2CC2)cc1` [Example 1, N-[4-(3,5-dicyclopropyl-1H-pyrazol-1-yl)phenyl]-4-methyl-1,2,3-thiadiazole-5-carboxamide], for which the values for the inhibition at 1 µM on CRAC channels [1] and on CRAC channels [2] were 99% and 93.2%, respectively. For the same compound, testing at 10 µM in assay [3] gave an inhibition of 31%. The pIC50 in the assay on IL-2 [4] was 6.47; in the assay with TNFα [5], 5.97.
`Cc1ncsc1C(=O)Nc1ccc(-n2nc(C3CC3)cc2C2CC2)cc1` [Example 2, N-[4-(3,5-dicyclopropyl-1H-pyrazol-1-yl)phenyl]-4-methylthiazole-5-carboxamide]: the inhibition at 1 µM at CRAC channels [1] and at CRAC channels [2] was 100% throughout. The pIC50 in assay [3] is 6.70.
Consider `O=C(Nc1ccc(-n2nc(C3CC3)cc2C2CC2)cc1)c1ccccc1` [Example 6, N-[4-(3,5-dicyclopropyl-1H-pyrazol-1-yl)phenyl]benzamide], for which the inhibition (as a rule, the change of the read-out against control, counted positive when it falls) at 1 µM on CRAC channels [1] came to 41.3%; at CRAC channels [2], 86%. In assay [3], this compound displayed an inhibition at 10 µM of 35%.
Consider `O=C(Nc1ccc(-n2nc(C3CC3)cc2C2CC2)cc1)c1cccc(F)c1F` [Example 9, N-[4-(3,5-dicyclopropyl-1H-pyrazol-1-yl)phenyl]-2,3-difluorobenzamide], for which the inhibition at 1 µM on CRAC channels [1] came to 98.6%; on CRAC channels [2] it was 86.8%. In addition, 10 µM produced 14% inhibition in assay [3].
With `O=C(Nc1ccc(-n2nc(C3CC3)cc2C2CC2)cc1)C1(c2ccccc2)CC1` [Example 21, N-[4-(3,5-dicyclopropyl-1H-pyrazol-1-yl)phenyl]-1-phenylcyclopropanecarboxamide], on CRAC channels [1], the inhibition at 1 µM is 78.4%. This compound also showed an inhibition at 10 µM in assay [3] of 41%.
As for `Cc1nnsc1C(=O)Nc1ccc(-n2nc(C(F)(F)F)cc2C2CC2)cc1` [Example 52, N-{4-[5-cyclopropyl-3-(trifluoromethyl)-1H-pyrazol-1-yl]phenyl}-4-methyl-1,2,3-thiadiazole-5-carboxamide], the inhibition at 1 µM is 100% on CRAC channels [1] and 78.2% on CRAC channels [2]. In assay [3], this compound registered an inhibition at 10 µM of 34%.
On to `Cc1nc(C)c(C(=O)Nc2ccc(-n3nc(C(F)(F)F)cc3C3CC3)cc2)s1` [Example 55, N-{4-[5-cyclopropyl-3-(trifluoromethyl)-1H-pyrazol-1-yl]phenyl}-2,4-dimethylthiazole-5-carboxamide], for which the inhibition at 1 µM at CRAC channels [1] and on CRAC channels [2] was 100% each time. The pIC50 in assay [3] was 6.21.
As for `Cc1ncsc1NC(=O)c1ccc(-n2nc(C(F)(F)F)cc2C2CC2)cc1` [Example 78, 4-[5-cyclopropyl-3-(trifluoromethyl)-1H-pyrazol-1-yl]-N-(4-methylthiazol-5-yl)benzamide], the inhibition at 1 µM on CRAC channels [1] is 100%. Further, the pIC50 was 7.46 in the assay with IL-2 [4] and 6.83 in the assay with IL-2 [6].
As to `Cc1nnsc1C(=O)Nc1ccc(-n2nc(C(F)(F)F)cc2C2CC2)c(F)c1` [Example 82, N-{4-[5-cyclopropyl-3-(trifluoromethyl)-1H-pyrazol-1-yl]-3-fluorophenyl}-4-methyl-1,2,3-thiadiazole-5-carboxamide], the inhibition at 1 µM at CRAC channels [1] amounted to 100%. Also, the pIC50 is 7.42 with IL-2 [4] and 7.61 in the assay with IL-2 [6].
With `O=C(Nc1ccc(-n2nc(C(F)(F)F)cc2C2CC2)c(F)c1)c1ccncc1` [Example 90, N-{4-[5-cyclopropyl-3-(trifluoromethyl)-1H-pyrazol-1-yl]-3-fluorophenyl}isonicotinamide hydrochloride], the inhibition at 1 µM at CRAC channels [1] is 100%. For the same compound, in assay [3], the inhibition at 10 µM stood at 90.7% and the pIC50 is 6.52.
`O=C(Nc1ccc(-n2nc(C(F)(F)F)cc2C2CC2)c(F)c1)c1ccncc1F` [Example 91, N-{4-[5-cyclopropyl-3-(trifluoromethyl)-1H-pyrazol-1-yl]-3-fluorophenyl}-3-fluoroisonicotinamide]: at CRAC channels [1], the inhibition at 1 µM was 100%. Further, in assay [3], 10 µM produced 92.7% inhibition and the pIC50 is 5.86.
In the case of `O=C(Nc1ccc(-n2nc(C(F)(F)F)cc2C2CC2)c(F)c1)c1c(Cl)cncc1Cl` [Example 92, 3,5-dichloro-N-{4-[5-cyclopropyl-3-(trifluoromethyl)-1H-pyrazol-1-yl]-3-fluorophenyl}isonicotinamide], the inhibition at 1 µM on CRAC channels [1] is 95.8%. In assay [3], this compound displayed an inhibition at 10 µM of 100%.
`Cc1ccccc1C(=O)Nc1ccc(-n2nc(C(F)(F)F)cc2C2CC2)nc1` [Example 104, N-{6-[5-cyclopropyl-3-(trifluoromethyl)-1H-pyrazol-1-yl]pyridin-3-yl}-2-methylbenzamide]: the inhibition at 1 µM on CRAC channels [1] was 100%. Moreover, the pIC50 in the assay on IL-2 [7] is 7.24; with IL-2 [4], 7.02; in the assay with TNFα [5], 6.24; with IL-2 [6], 7.18; in the assay on TNFα [8], 7.68.
As for `O=C(Nc1ccc(-n2nc(C(F)(F)F)cc2C2CC2)nc1)c1ccccc1F` [Example 106, N-(6-(5-cyclopropyl-3-(trifluoromethyl)-1H-pyrazol-1-yl)pyridin-3-yl)-2-fluorobenzamide], the inhibition at 1 µM at CRAC channels [1] stood at 100%. Besides, the pIC50 in the assay on IL-2 [7] is 7.22; in the assay on IL-2 [4], 7.08; with IL-2 [6], 7.94; with TNFα [8] it was 6.98.
In the case of `C[C@]12C=CC(=O)C=C1CC[C@@H]1[C@@H]2[C@@H](O)C[C@@]2(C)[C@H]1CC[C@]2(O)C(=O)CO` [Prednisolone, reference compound], the pIC50 in the assay on IL-2 [7] was 7.45; in the assay on IL-2 [4] it was 7.11; in the assay with IL-2 [6] it was 8.43.

The values are drawn from patent US10668051B2, “Modulators of calcium release-activated calcium channel” (Rhizen Pharmaceuticals SA, priority 2009, dated 2020).
